Data: patent publication US20100256041A1, “Conjugate Molecule Compounds With Enhanced Cell Uptake Activity” (priority 2004, published 2010)
“And” between values parts separate entries of the source, which are not always exact repeats. Equal values may be shown once. Read-outs that look alike come from different tables or passages of the source. Square brackets hold non-standard residues; d marks the D form.

How the values were obtained:
[1] = tested on: IGROV-1 (ovary); assay: MTT cell survival assay, 96 h treatment (Example 1); type: cell-based, human; conditions: IGROV-1 cells, mean of four measurements
Method: (§1) Effects of a treatment with increasing concentrations of a conjugate molecule of the invention (Cisplatin-D-TAT) and an unconjugated anti-cancer drug (Cisplatin) on the survival of IGROV-1 (ovary), IGROV-1/CDDP (ovary, cisplatin-resistant cell line), MCF-7 (breast), and MRC-5 (human fibroblast) (three human tumor cell lines and one human fibroblast cell line) was determined. Cells of each cell line were plated out (200 μl final volume of RPMI 1640 supplemeted with 10% FBS) in 96 well plates (5 different concentrations for each test substance, one control experiment) 5,000 to 40,000 cells per well (depending on the doubling time for each cell line) were incubated at 37° C. for 24 h before treatment with the test substances. Each experiment was carried 4×. Cell incubation after treatment was performed for 96 h at 37° C. The effects of Cisplatin-D-TAT and Cisplatin on the survival of these cell lines (in vitro cytotoxic activity) were measured by using an MTT assay. 20 μl of a 5 mg/ml solution 0.22 μl filtered tetrazolium reagent (MTT, Ref. M2003, Sigma) in Phosphate Buffered Saline (PBS, Ref BE17-517Q, Cambrex) were aded in each well. Culture plates were incubated for 4 h at 37° C. The resulting supernatant was removed and formazan crystals were dissolved with 200 μl of DMSO per well. Absorbancy (OD) was determined in each well on a single wavelength spectrophotometer plate reader at 570 nm (Multiskan, Labsystem, Helsinki, Finland) Data were collected with Genesis software (Labsystem, Helsinki, Finland). IC50 (concentration of the drug inhibiting 50% of the cell growth) for the test substances was calculated for each cell line after plotting. Control cells were treated with vehicle.

[2] = tested on: IGROV-1/CDDP (ovary, cisplatin-resistant cell line); assay: as above; type: cell-based, human; conditions: for IC50: IGROV-1/CDDP cisplatin-resistant cells, MTT, 96 h, mean of four measurements; for resistance index of IGROV-1/CDDP compared to parental IGROV-1 cell line: approximate; for Resistance Index of IGROV-1/CDDP versus IGROV-1 cell line: ratio of IC50 IGROV-1/CDDP to IGROV-1
Method: as §1

[3] = tested on: MCF-7 (breast); assay: as above; type: cell-based, human; conditions: MCF-7 cells
Method: as §1

[4] = tested on: MRC-5 (human fibroblast); assay: as above; type: cell-based; conditions: MRC-5 fibroblast cells
Method: as §1, with “Culture plates were incubated for 4 h at 37° C. The resulting supernatant was removed and formazan crystals were dissolved with 200 μl of DMSO per well.” left out, “IC50 (concentration of the drug inhibiting 50% of the cell growth) for the test substances was calculated for each cell line after plotting. Control cells were treated with vehicle.” left out

[5] = tested on: MCF-7 (human breast adenocarcinoma cell line); assay: MTT cell survival assay, 96 h treatment (Example 2, oxaliplatin conjugates); type: cell-based; conditions: MCF-7 cells, Example 2, triplicate
Method: (§2) Effects of a treatment with increasing concentrations of a conjugate molecule of the invention (D-Tat-oxaliplatin) on the survival of MCF-7 (human breast adenocarcinoma cell line) and SiHa (human cervix squamous carcinoma cell line) was determined. The effects of D-Tat-oxaliplatin was compared to the conjugate L-Tat-oxaliplatin and to two unconjugated anti-cancer drugs (Oxaliplatin and Cisplatin). Cells of each cell line (10′000 cells per well) were plated into 96 well plates (200 μl total volume of MEM supplemented with 10% FBS, 1% L-glutamine, 1% Na-pyruvate, 1% non-essential amino acids for MCF-7 and of MEM/Earle's supplemented with 10% FBS, 1% Na-pyruvate, 1% non-essential amino acids for SiHa cells). 6 to10 different concentrations for each test substance were tested. The control cells are non-treated. Cells were incubated at 37° C. for 24 h before treatment with the test substance. Each experiment was carried in triplicate. Cell incubation after treatment was performed for 96 hours at 37° C. The effects of the test molecules on the survival of these cell lines (in vitro cytotoxic activity) was measured by the MTT assay. 20 μl of a 5 mg/ml 0.22 μm filtered Thiazolyl Blue Tetrazolium Bromide solution (MTT, Sigma, Ref. No. 88415) in Phosphate Buffered saline (PBS, CHUV) were added to each well and the plate was incubated for 4 hours at 37° C. The supernatant was removed and formazan crystals were dissolved with DMSO (200 μl per well). Absorbancy (OD) was measured in a microplate reader at 595 nm (Expert Plus Reader, Asys Hitech). The IC50 (concentration of the drug inhibiting 50% of the cell growth) for the test substances was calculated using Prism software.

[6] = tested on: SiHa (human cervix squamous carcinoma cell line); assay: as above; type: cell-based; conditions: SiHa cells, Example 2, triplicate
Method: as §2

[7] = tested on: MCF-7 (human breast adenocarcinoma cell line); assay: cells; type: cell-based
Method: (§3) Effects of a treatment with increasing concentrations of a conjugate molecule of the invention (D-Tat-chlorambucil) on the survival of MCF-7 (human breast adenocarcinoma cell line) and SiHa (humon cervix squamous carcinoma cell line) was determined. The effects of D-Tat-chlorambucil was compared to the conjugate L-Tat-chlorambucil and to two unconjugated anti-cancer drugs (Chlorambucil and Cisplatin). Cells of each cell line (10′000 cells per well) were plated into 96 well plates (200 μtotal volume of MEM supplemented with 10% FBS, 1% L-glutamine, 1% Na-pyruvate, 1% non-essential amino acids for MCF-7 and of MEM/Earle's supplemented with 10% FBS, 1% Na-pyruvate, 1% non-essential amino acids for SiHa cells). 6 to 10 different concentrations for each test substance were tested. The control cells are non-treated. Cells were incubated at 37° C. for 24 h before treatment with the test substance. Each experiment was carried in triplicate. Cell incubation after treatment was performed for 96 hours at 37° C. The effects of the test molecules on the survival of these cell lines (in vitro cytotoxic activity) was measured by the MTT assay. 20 μl of a 5 mg/ml 0.22 μm filtered Thiazolyl Blue Tetrazolium Bromide solution (MTT, Sigma, Ref. No. 88415) in Phosphate Buffered saline (PBS, CHUV) were added to each well and the plate was incubated for 4 hours at 37° C. The supernatant was removed and formazan crystals were dissolved with DMSO (200 μl per well). Absorbancy (OD) was measured in a microplate reader at 595 nm
(§4) (Expert Plus Reader, Asys Hitech). The IC50 (concentration of the drug inhibiting 50% of the cell growth) for the test substances was calculated using Prism software.

[8] = tested on: SiHa (humon cervix squamous carcinoma cell line); assay: cells; type: cell-based, human
Method: as §3, §4

[9] = Octanol/water partition (shake-flask, HPLC at 214 nm), water solubility; conditions: 1 mM, 24 hours equilibration at room temperature, FIG. 10

Compound | IC50 [1] [µM] | IC50 [2] [µM] | resistance index of IGROV-1/CDDP compared to parental IGROV-1 cell line [2] | Resistance Index of IGROV-1/CDDP versus IGROV-1 cell line [2] | IC50 [3] [µM] | IC50 [4] [µM] | IC50 [5] [µM] | IC50 [6] [µM] | water solubility (compound partitioned in water, octanol/water) [9] | further results
N.N.[Cl][Pt][Cl] [Cisplatin, cis-diamindichloroplatin (II)] | 1.2 | 52.3 | approximately 40 fold | 43.6 | 2.68 | 4.88 | 9.1 | 11.1 | – | IC50 ([7]; MCF-7 cells, MTT, 96 h, Example 3, triplicate, read-out: IC50): 7 µM and 7.96 µM; IC50 ([8]; SiHa cells, MTT, 96 h, Example 3, triplicate, read-out: IC50): 7 µM and 7.03 µM
O=C(O)CCCc1ccc(N(CCCl)CCCl)cc1 [chlorambucil] | – | – | – | – | – | – | – | – | very low water solubility | IC50 ([7]; Homo sapiens, MCF7): > 1000 µM; IC50 ([7]; Homo sapiens, MCF7, 96 h): > 1000 µM; IC50 ([8]; Homo sapiens, SiHa): > 1000 µM; IC50 ([8]; Homo sapiens, SiHa, 96 h): > 1000 µM
COc1cccc2c1C(=O)c1c(O)c3c(c(O)c1C2=O)C[C@@](O)(C(=O)CO)C[C@@H]3O[C@H]1C[C@H](N)[C@H](O)[C@H](C)O1 [doxorubicine] | – | – | – | – | – | – | – | – | almost perfectly soluble in water | –
O=C(O)C(=O)O.[NH-][C@@H]1CCCC[C@H]1[NH-].[Pt+2] [oxaliplatin] | – | – | – | – | – | – | 1.5 | 11.1 | – | –
CC(C)(C)NC(=O)[C@@H]1C[C@@H]2CCCC[C@@H]2CN1C[C@@H](O)[C@H](Cc1ccccc1)NC(=O)[C@H](CC(N)=O)NC(=O)c1ccc2ccccc2n1 [saquinavir] | – | – | – | – | – | – | – | – | only partially soluble in water | –
Cisplatin-D-TAT (H-[dM]GG[dR][dR][dR][dQ][dR][dR][dK][dK][dR]-NH2; also: cisplatin conjugate) | 18.4 | 35.3 | approximately two | 1.9 | 4.89 | 20.6 | – | – | – | –
